Where only a bound is given, the exact number is not on record here.

This note sets out measurements from article PMC12472322, “Structure–Activity Relationship Study of 3-Alkynyl-6-aryl-isothiazolo[4,3-b]pyridines as Dual Inhibitors of the Lipid Kinases PIKfyve and PIP4K2C” (Pharmaceuticals, 2025).

For data set [1], the target named is T1, PIKfyve (Homo sapiens, UniProt Q9Y2I7).
T1 construct: purchased Nanosyn, Santa Clara, CA, USA (contract assay service)
Put plainly: biochemical PIKfyve mobility shift assay (Nanosyn).

Data set [2] is described as follows: cell viability (AlamarBlue) in SARS-CoV-2-infected Vero E6/TMPRSS2 cells. The data set is classed as cell-based. Conditions: African green monkey, Vero E6/TMPRSS2 cells infected with SARS-CoV-2, half-maximal cytotoxic concentration, read-out: SARS-CoV2 CC50. Background: Alamar Blue is a resazurin reagent that responds to reducing activity.
In data set [3] the test system is VEEV (TC-83). The data set can be described thus: microbe, parasite or virus in culture. The data set is classed as cell-based. The conditions noted are these: Venezuelan equine encephalitis virus, U-87 MG, 18 h, read-out: VEEV (TC-83) EC50.
Data set [4] concerns U-87 MG cells. Conditions: half-maximal cytotoxic concentration.

T1 sequence (Q9Y2I7 whole entry): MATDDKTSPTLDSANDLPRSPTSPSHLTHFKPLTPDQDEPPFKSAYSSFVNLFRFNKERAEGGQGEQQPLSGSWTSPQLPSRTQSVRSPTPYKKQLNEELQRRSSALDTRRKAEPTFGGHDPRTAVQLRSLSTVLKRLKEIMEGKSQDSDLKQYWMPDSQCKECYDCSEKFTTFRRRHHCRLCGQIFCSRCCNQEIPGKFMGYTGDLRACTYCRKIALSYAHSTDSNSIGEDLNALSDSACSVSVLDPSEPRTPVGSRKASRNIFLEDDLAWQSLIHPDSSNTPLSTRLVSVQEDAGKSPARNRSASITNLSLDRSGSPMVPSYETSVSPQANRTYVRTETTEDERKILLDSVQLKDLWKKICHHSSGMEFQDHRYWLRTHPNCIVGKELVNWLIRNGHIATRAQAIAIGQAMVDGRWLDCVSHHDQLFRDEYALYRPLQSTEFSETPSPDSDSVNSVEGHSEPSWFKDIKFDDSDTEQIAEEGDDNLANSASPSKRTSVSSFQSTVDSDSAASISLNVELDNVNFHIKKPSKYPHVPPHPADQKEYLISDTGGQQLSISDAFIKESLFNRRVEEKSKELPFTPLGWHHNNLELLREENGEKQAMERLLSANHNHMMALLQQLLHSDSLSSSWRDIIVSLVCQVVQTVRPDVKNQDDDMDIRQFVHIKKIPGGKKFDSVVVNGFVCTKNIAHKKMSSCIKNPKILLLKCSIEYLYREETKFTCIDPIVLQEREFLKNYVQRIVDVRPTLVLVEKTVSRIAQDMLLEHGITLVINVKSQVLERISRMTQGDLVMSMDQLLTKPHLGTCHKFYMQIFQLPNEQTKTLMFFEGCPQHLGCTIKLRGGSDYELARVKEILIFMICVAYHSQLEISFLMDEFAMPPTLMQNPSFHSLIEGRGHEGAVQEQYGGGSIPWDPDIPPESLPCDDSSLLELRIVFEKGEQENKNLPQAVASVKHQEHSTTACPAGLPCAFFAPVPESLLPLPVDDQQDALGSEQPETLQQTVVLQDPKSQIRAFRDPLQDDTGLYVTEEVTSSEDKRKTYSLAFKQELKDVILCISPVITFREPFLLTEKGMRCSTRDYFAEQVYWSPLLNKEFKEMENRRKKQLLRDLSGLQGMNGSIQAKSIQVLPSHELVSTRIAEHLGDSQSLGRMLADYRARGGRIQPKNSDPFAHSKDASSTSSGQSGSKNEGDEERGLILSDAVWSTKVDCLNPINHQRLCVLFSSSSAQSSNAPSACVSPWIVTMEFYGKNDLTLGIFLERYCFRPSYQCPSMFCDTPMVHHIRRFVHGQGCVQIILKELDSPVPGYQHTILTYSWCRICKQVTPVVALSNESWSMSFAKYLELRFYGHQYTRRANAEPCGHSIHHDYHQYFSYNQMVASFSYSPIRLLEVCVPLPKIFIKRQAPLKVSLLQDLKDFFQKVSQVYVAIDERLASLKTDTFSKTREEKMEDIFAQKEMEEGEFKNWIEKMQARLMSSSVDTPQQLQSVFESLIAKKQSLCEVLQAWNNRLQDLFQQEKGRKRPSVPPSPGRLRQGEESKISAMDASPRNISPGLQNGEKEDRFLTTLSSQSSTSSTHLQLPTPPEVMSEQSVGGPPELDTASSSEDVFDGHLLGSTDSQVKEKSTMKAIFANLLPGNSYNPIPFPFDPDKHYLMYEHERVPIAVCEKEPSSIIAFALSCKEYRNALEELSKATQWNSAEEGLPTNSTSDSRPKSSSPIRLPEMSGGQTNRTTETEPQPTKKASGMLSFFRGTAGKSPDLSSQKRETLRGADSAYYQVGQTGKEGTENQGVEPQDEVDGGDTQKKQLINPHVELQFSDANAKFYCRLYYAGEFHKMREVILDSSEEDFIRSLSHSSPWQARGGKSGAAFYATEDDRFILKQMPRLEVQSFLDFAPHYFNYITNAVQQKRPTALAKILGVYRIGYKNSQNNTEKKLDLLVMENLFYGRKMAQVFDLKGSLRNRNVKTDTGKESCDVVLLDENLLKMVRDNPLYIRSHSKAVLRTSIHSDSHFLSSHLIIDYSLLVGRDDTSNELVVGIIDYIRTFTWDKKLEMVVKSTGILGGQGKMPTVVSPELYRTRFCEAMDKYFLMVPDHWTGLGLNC

As to `COc1ccc(-c2cnc3c(C#Cc4ccc(F)cc4)snc3c2)cc1OC` [Compound 7c, 6-(3,4-Dimethoxyphenyl)-3-((4-fluorophenyl)ethynyl)isothiazolo[4,3-b]pyridine], the IC50 in data set [1] (Tables 1-4 and text) came to 250 nM.
As for `COc1ccc(-c2cnc3c(C#CCNS(=O)(=O)c4ccccc4)snc3c2)cc1OC` [Compound 11b, N-(3-(6-(3,4-Dimethoxyphenyl)isothiazolo[4,3-b]pyridin-3-yl)prop-2-yn-1-yl)benzenesulfonamide], in data set [1] (Tables 1-4 and text), the half-inhibitory concentration (IC50) was found to be 1840 nM.
The same measure, in the same setting: next, `COc1ccc(-c2cnc3c(C#Cc4cc(C)cnc4F)snc3c2)cc1OC` [Compound 7v, 6-(3,4-Dimethoxyphenyl)-3-((2-fluoro-5-methylpyridin-3-yl)ethynyl)isothiazolo[4,3-b]pyridine]: 42 nM; `COc1ccc(C#Cc2snc3cc(-c4ccc(OC)c(OC)c4)cnc23)cn1` [Compound 7h, 6-(3,4-Dimethoxyphenyl)-3-((6-methoxypyridin-3-yl)ethynyl)isothiazolo[4,3-b]pyridine]: 590 nM.
Turning to `CCCC#Cc1snc2cc(-c3ccc(OC)c(OC)c3)cnc12` [Compound 7a, 6-(3,4-Dimethoxyphenyl)-3-(pent-1-yn-1-yl)isothiazolo[4,3-b]pyridine], the IC50 in data set [1] (Tables 1-4 and text) worked out at 850 nM. The “fold less potent on PIKfyve relative to RMC-113” value in data set [1] (ratio of IC50 values) is given as 100 fold.
In the case of `CC(C)Oc1ccc(-c2cnc3c(C#Cc4cccnc4)snc3c2)cc1` [Compound 3e, 6-(4-Isopropoxyphenyl)-3-(pyridin-3-ylethynyl)isothiazolo[4,3-b]pyridine], the IC50 in data set [1] (Tables 1-4 and text) is 20 nM.
In the case of `COc1ccc(-c2cnc3c(C#CCNC(=O)Nc4ccccc4)snc3c2)cc1OC` [Compound 11c, 1-(3-(6-(3,4-Dimethoxyphenyl)isothiazolo[4,3-b]pyridin-3-yl)prop-2-yn-1-yl)-3-phenylurea], in data set [1] (Tables 1-4 and text), the concentration for half-maximal inhibition (IC50) was greater than 10000 nM.
As to `COc1ccc(-c2cnc3c(C#Cc4ccncc4)snc3c2)cc1OC` [Compound 7x, 6-(3,4-Dimethoxyphenyl)-3-(pyridin-4-ylethynyl)isothiazolo[4,3-b]pyridine], in data set [1] (Tables 1-4 and text), the IC50 is 75 nM.
With `COc1ccc(-c2cnc3c(NC(=O)c4cccnc4)snc3c2)cc1OC` [Compound 20, N-(6-(3,4-Dimethoxyphenyl)isothiazolo[4,3-b]pyridin-3-yl)nicotinamide], the “PIKfyve inhibition in words” value in data set [1] was “practically inactive”. In addition, the IC50 in data set [1] (Tables 1-4 and text) came to 4290 nM.
Turning to `COc1ccc(-c2cnc3c(/C=C(\OCCN(C)C)c4cccnc4)snc3c2)cc1OC` [Compound 23b], the IC50 in data set [1] (Tables 1-4 and text) was 309 nM.
Still for that read-out and setting: next, `COc1ccc(-c2cnc3c(C#CCNc4ccccc4)snc3c2)cc1OC` [Compound 13, N-(3-(6-(3,4-Dimethoxyphenyl)isothiazolo[4,3-b]pyridin-3-yl)prop-2-yn-1-yl)aniline]: 184 nM; `CCOc1ncccc1C#Cc1snc2cc(-c3ccc(OC)c(OC)c3)cnc12` [Compound 7s, 6-(3,4-Dimethoxyphenyl)-3-((2-ethoxypyridin-3-yl)ethynyl)isothiazolo[4,3-b]pyridine]: 110 nM; `COc1ccc(-c2cnc3c(C#Cc4ccc(C(F)(F)F)nc4)snc3c2)cc1OC` [Compound 7n, 6-(3,4-Dimethoxyphenyl)-3-((6-(trifluoromethyl)pyridin-3-yl)ethynyl)isothiazolo[4,3-b]pyridine]: 680 nM.
On to `COc1ccc(-c2cnc3c(C#Cc4cccc(Cl)c4)snc3c2)cc1OC` [Compound 7d, 6-(3,4-Dimethoxyphenyl)-3-((3-chlorophenyl)ethynyl)isothiazolo[4,3-b]pyridine], for which the IC50 in data set [1] (Tables 1-4 and text) is 39 nM.
Take `COc1ccc(-c2cnc3c(/C=C(/c4cccnc4)N4CCOCC4)snc3c2)cc1OC` [Compound 23c, (Z)-4-(2-(6-(3,4-Dimethoxyphenyl)isothiazolo[4,3-b]pyridin-3-yl)-1-(pyridin-3-yl)vinyl)morpholine]: the IC50 in data set [1] (Tables 1-4 and text) was determined as 613 nM.
With `COc1ccc(-c2cnc3c(C#Cc4ccccc4)snc3c2)cc1OC` [Compound 7b, 6-(3,4-Dimethoxyphenyl)-3-(phenylethynyl)isothiazolo[4,3-b]pyridine], the IC50 in data set [1] (Tables 1-4 and text) stood at 59 nM.
Regarding `O=C(c1cccc(-c2cnc3c(C#Cc4cccnc4)snc3c2)c1)N1CCCC1` [Compound 3r, (3-(3-(Pyridin-3-ylethynyl)isothiazolo[4,3-b]pyridin-6-yl)phenyl)(pyrrolidin-1-yl)methanone], in data set [1] (Tables 1-4 and text), the IC50 worked out at 6.1 nM.
On the same count and under the same terms, next, `O=C(c1ccc(-c2cnc3c(C#Cc4cccnc4)snc3c2)cc1)N1CCCC1` [Compound 3p, (4-(3-(Pyridin-3-ylethynyl)isothiazolo[4,3-b]pyridin-6-yl)phenyl)(pyrrolidin-1-yl)methanone]: 20 nM; `CN(C)C(=O)c1ccc(-c2cnc3c(C#Cc4cccnc4)snc3c2)cc1` [Compound 3o, N,N-Dimethyl-4-(3-(pyridin-3-ylethynyl)isothiazolo[4,3-b]pyridin-6-yl)benzamide]: 25 nM; `C(#Cc1snc2cccnc12)c1cccnc1` [Compound 2a, 3-(Pyridin-3-ylethynyl)isothiazolo[4,3-b]pyridine]: 1150 nM.
`COc1ccc(-c2cnc3c(C#Cc4cc(F)cnc4OC)snc3c2)cc1OC` [Compound 7t, 6-(3,4-Dimethoxyphenyl)-3-((5-fluoro-2-methoxypyridin-3-yl)ethynyl)isothiazolo[4,3-b]pyridine]: the IC50 in data set [1] (Tables 1-4 and text) is greater than 10000 nM.
As to `COc1ccc(-c2cnc3c(C#Cc4ccc(C)nc4)snc3c2)cc1OC` [Compound 7g, 6-(3,4-Dimethoxyphenyl)-3-((6-methylpyridin-3-yl)ethynyl)isothiazolo[4,3-b]pyridine], the IC50 in data set [1] (Tables 1-4 and text) was found to be 360 nM.
`Cc1ccccc1-c1cnc2c(C#Cc3cccnc3)snc2c1` [Compound 3c, 3-(Pyridin-3-ylethynyl)-6-(2-tolyl)isothiazolo[4,3-b]pyridine]: the IC50 came to 8.2 nM in data set [1] (Tables 1-4 and text); 8 nM in data set [1] (values given in text in nM).
As to `COc1ccc(-c2cnc3c(-c4cccnc4)snc3c2)cc1OC` [Compound 17, 6-(3,4-Dimethoxyphenyl)-3-(pyridin-3-yl)isothiazolo[4,3-b]pyridine], the concentration for half-maximal inhibition (IC50) in data set [1] (Tables 1-4 and text) is 602 nM.
Regarding `COc1cccc(C#Cc2snc3cc(-c4ccc(OC)c(OC)c4)cnc23)c1` [Compound 7f, 6-(3,4-Dimethoxyphenyl)-3-((3-methoxyphenyl)ethynyl)isothiazolo[4,3-b]pyridine], in data set [1] (Tables 1-4 and text), the IC50 amounted to 21 nM. Besides, the half-maximal cytotoxic concentration (CC50) in data set [2] was less than 10 µM. The EC50 in data set [3] was 4.79 ± 0.24 µM. Also, the “VEEV (TC-83) CC50” value in data set [4] is recorded as greater than 10 µM.
As to `COc1ccc(-c2cnc3c(NCc4cccnc4)snc3c2)cc1OC` [Compound 15, 6-(3,4-Dimethoxyphenyl)-N-(pyridin-3-ylmethyl)isothiazolo[4,3-b]pyridin-3-amine], in data set [1], the “PIKfyve inhibition in words” value was “practically inactive”. Besides, the IC50 in data set [1] (Tables 1-4 and text) was greater than 10000 nM.
For the compound `CN(C)c1ccc(-c2cnc3c(C#Cc4cccnc4)snc3c2)cc1` [Compound 3d, N,N-Dimethyl-4-(3-(pyridin-3-ylethynyl)isothiazolo[4,3-b]pyridin-6-yl)aniline], the IC50 in data set [1] (Tables 1-4 and text) was 2.2 nM.
Consider `COc1ccc(-c2cnc3c(C#CCNC(=O)c4ccccc4)snc3c2)cc1OC` [Compound 11a, N-(3-(6-(3,4-Dimethoxyphenyl)isothiazolo[4,3-b]pyridin-3-yl)prop-2-yn-1-yl)benzamide], for which the IC50 in data set [1] (Tables 1-4 and text) came to 2040 nM.
Same read-out and setting: for `CN(C)C(=O)c1cccc(-c2cnc3c(C#Cc4cccnc4)snc3c2)c1` [Compound 3q, N,N-Dimethyl-3-(3-(pyridin-3-ylethynyl)isothiazolo[4,3-b]pyridin-6-yl)benzamide] the value was 18 nM; for `COCCOc1ccc(-c2cnc3c(C#Cc4cccnc4)snc3c2)cc1` [Compound 3j, 6-(4-(2-Methoxyethoxy)phenyl)-3-(pyridin-3-ylethynyl)isothiazolo[4,3-b]pyridine], 2.1 nM; for `COc1ccc(-c2cnc3c(/C=C(\SCCO)c4cccnc4)snc3c2)cc1OC` [Compound 23d, (Z)-2-((2-(6-(3,4-Dimethoxyphenyl)isothiazolo[4,3-b]pyridin-3-yl)-1-(pyridin-3-yl)vinyl)thio)ethan-1-ol], 1540 nM.
Same read-out and setting: for `CCNC(=O)c1ccc(-c2cnc3c(C#Cc4cccnc4)snc3c2)cc1` [Compound 3n, N-Ethyl-4-(3-(pyridin-3-ylethynyl)isothiazolo[4,3-b]pyridin-6-yl)benzamide] the value was 3.5 nM.
With `COc1ccc(-c2cnc3c(C#Cc4ccc(F)nc4)snc3c2)cc1OC` [Compound 7j, 6-(3,4-Dimethoxyphenyl)-3-((6-fluoropyridin-3-yl)ethynyl)isothiazolo[4,3-b]pyridine], in data set [1] (Tables 1-4 and text), the IC50 is 120 nM.
The same measure, in the same setting: next, `CO/C(=C\c1snc2cc(-c3ccc(OC)c(OC)c3)cnc12)c1cccnc1` [Compound 23a, (Z)-6-(3,4-Dimethoxyphenyl)-3-(2-methoxy-2-(pyridin-3-yl)vinyl)isothiazolo[4,3-b]pyridine]: 525 nM.
The same measure, in the same setting: next, `COc1ccc(C#Cc2snc3cc(-c4ccc(OC)c(OC)c4)cnc23)c(OC)n1` [Compound 7u, 6-(3,4-Dimethoxyphenyl)-3-((2,6-dimethoxypyridin-3-yl)ethynyl)isothiazolo[4,3-b]pyridine]: 5670 nM; `COc1ccc(-c2cnc3c(CCc4cccnc4)snc3c2)cc1OC` [Compound 22, 6-(3,4-Dimethoxyphenyl)-3-(2-(pyridin-3-yl)ethyl)isothiazolo[4,3-b]pyridine]: 33 nM.
Still for that read-out and setting: next, `COc1ccc(-c2cnc3c(C#Cc4ccccn4)snc3c2)cc1OC` [Compound 7y, 6-(3,4-Dimethoxyphenyl)-3-(pyridin-2-ylethynyl)isothiazolo[4,3-b]pyridine]: 30 nM.

A word on the IC50: it is the midpoint of a concentration-inhibition curve. A word on the CC50: it is the concentration giving 50% cytotoxicity. As usually defined, the EC50 is the concentration giving half of the maximal effect.
